From ChEMBL document CHEMBL4043224, “d-Amino acid mutation of PMI as potent dual peptide inhibitors of p53-MDM2/MDMX interactions” (Bioorg Med Chem Lett, 2017)

Columns and labels:
[1] = Cytotoxicity against human U87 cells assessed as reduction in cell viability after 24 hrs by MTT assay; conditions: U-87 MG
Cathepsin G [2] = molecular target: T1, Cathepsin G (Homo sapiens, UniProt P08311); experiment: Drug metabolism assessed as cathepsin G (unknown origin)-mediated compound hydrolysis after 4 hrs by RP-HPLC analysis; format: ADME
T1 sequence (P08311 whole entry): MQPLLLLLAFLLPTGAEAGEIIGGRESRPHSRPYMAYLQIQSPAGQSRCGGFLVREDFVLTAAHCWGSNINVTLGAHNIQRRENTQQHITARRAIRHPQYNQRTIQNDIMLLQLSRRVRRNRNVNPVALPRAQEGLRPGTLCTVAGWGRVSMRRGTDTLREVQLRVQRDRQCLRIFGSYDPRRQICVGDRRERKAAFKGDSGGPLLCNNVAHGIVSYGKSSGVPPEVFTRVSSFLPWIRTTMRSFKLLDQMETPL

Cathepsin G [3] = molecular target: T1, Cathepsin G; experiment: Drug metabolism assessed as cathepsin G (unknown origin)-mediated compound hydrolysis after 8 hrs by RP-HPLC analysis; format: ADME

Drug metabolism (Cathepsin G [2]) | Drug metabolism (Cathepsin G [3]) | Compound | IC50 [1]
Metabolite_Detected | – | H-TSFAEYWNLLSP-OH | 67.6 µM
– | – | CC(C)C[C@H](NC(=O)[C@H](CC(N)=O)NC(=O)[C@H](Cc1c[nH]c2ccccc12)NC(=O)[C@H](Cc1ccc(O)cc1)NC(=O)[C@H](CCC(=O)O)NC(=O)[C@H](C)NC(=O)[C@H](Cc1ccccc1)NC(=O)[C@H](CO)NC(=O)[C@@H](N)[C@@H](C)O)C(=O)N[C@@H](CC(C)C)C(=O)N[C@H](Cc1ccc(O)cc1)C(=O)N1CCC[C@H]1C(=O)O | 30.9 µM
– | – | COc1ccc(C2=N[C@H](c3ccc(Cl)cc3)[C@H](c3ccc(Cl)cc3)N2C(=O)N2CCNC(=O)C2)c(OC(C)C)c1 | 5.93 µM
– | Metabolite_Detected | CC(C)C[C@H](NC(=O)[C@H](CC(N)=O)NC(=O)[C@H](Cc1c[nH]c2ccccc12)NC(=O)[C@H](Cc1ccc(O)cc1)NC(=O)[C@H](CCC(=O)O)NC(=O)[C@H](C)NC(=O)[C@H](Cc1ccccc1)NC(=O)[C@H](CO)NC(=O)[C@@H](N)[C@@H](C)O)C(=O)N[C@@H](CC(C)C)C(=O)N[C@H](Cc1ccccc1)C(=O)N1CCC[C@H]1C(=O)O | 54.3 µM
– | – | CC(C)C[C@H](NC(=O)[C@H](CC(N)=O)NC(=O)[C@H](Cc1c[nH]c2ccccc12)NC(=O)[C@H](Cc1ccc(O)cc1)NC(=O)[C@H](CCC(=O)O)NC(=O)[C@H](C)NC(=O)[C@H](Cc1ccccc1)NC(=O)[C@H](CO)NC(=O)[C@@H](N)[C@@H](C)O)C(=O)N[C@@H](CC(C)C)C(=O)N[C@H](Cc1cnc[nH]1)C(=O)N1CCC[C@H]1C(=O)O | 43.5 µM
– | – | CC(C)C[C@H](NC(=O)[C@H](CC(N)=O)NC(=O)[C@H](Cc1c[nH]c2ccccc12)NC(=O)[C@H](Cc1ccc(O)cc1)NC(=O)[C@H](CCC(=O)O)NC(=O)[C@H](C)NC(=O)[C@H](Cc1ccccc1)NC(=O)[C@H](CO)NC(=O)[C@@H](N)[C@@H](C)O)C(=O)N[C@@H](CC(C)C)C(=O)N[C@@H](C(=O)N1CCC[C@H]1C(=O)O)[C@H](C)O | 45.7 µM
